Paper PMC9421654, “Discovery of Substituted Di(pyridin-2-yl)-1,2,4-thiadiazol-5-amines as Novel Macrofilaricidal Compounds for the Treatment of Human Filarial Infections” (Journal of Medicinal Chemistry, 2022)
≈ marks a conversion by molar mass, not a printed value. Like-named read-outs stand apart in the source and are kept apart here.

Experiments:
[1] = Liver S9 metabolic stability assay, human; assay type: in vitro ADME; conditions: 3 μM, 60 min
Description: (§1) Liver S9 Metabolic Stability Assay: Incubations were performed at 37 °C in a Dubnoff Shaking water bath using 2 mL 96-well incubation plates. Rat and human S9 protein concentrations were 0.75 mg/ml and 1.2 mg/ml, respectively. The final concentrations of NADPH, UDPGA, and GSH were 1, 0.5, and 2.5 mM, and the final concentration of PAPS was 0.05 mg/ml. Substrate concentrations were 3µM, incubation time was 60 minutes, and all tests were done in triplicate. The incubation was conducted in 200 mM Tris buffer containing 2 mM magnesium chloride, pH=7.4 and the total incubation volume was 0.5 ml. Samples were analysed via LC-MS/MS and reported as percentage remaining after incubation for 60 minutes. […]

[2] = target: T1, hERG potassium channels (KCNH2, expressed in HEK293 cells) (Homo sapiens, UniProt Q12809); assay: hERG inhibition; assay type: cell-based
T1 construct: expressed in transfected cells
T1 sequence (Q12809 whole entry): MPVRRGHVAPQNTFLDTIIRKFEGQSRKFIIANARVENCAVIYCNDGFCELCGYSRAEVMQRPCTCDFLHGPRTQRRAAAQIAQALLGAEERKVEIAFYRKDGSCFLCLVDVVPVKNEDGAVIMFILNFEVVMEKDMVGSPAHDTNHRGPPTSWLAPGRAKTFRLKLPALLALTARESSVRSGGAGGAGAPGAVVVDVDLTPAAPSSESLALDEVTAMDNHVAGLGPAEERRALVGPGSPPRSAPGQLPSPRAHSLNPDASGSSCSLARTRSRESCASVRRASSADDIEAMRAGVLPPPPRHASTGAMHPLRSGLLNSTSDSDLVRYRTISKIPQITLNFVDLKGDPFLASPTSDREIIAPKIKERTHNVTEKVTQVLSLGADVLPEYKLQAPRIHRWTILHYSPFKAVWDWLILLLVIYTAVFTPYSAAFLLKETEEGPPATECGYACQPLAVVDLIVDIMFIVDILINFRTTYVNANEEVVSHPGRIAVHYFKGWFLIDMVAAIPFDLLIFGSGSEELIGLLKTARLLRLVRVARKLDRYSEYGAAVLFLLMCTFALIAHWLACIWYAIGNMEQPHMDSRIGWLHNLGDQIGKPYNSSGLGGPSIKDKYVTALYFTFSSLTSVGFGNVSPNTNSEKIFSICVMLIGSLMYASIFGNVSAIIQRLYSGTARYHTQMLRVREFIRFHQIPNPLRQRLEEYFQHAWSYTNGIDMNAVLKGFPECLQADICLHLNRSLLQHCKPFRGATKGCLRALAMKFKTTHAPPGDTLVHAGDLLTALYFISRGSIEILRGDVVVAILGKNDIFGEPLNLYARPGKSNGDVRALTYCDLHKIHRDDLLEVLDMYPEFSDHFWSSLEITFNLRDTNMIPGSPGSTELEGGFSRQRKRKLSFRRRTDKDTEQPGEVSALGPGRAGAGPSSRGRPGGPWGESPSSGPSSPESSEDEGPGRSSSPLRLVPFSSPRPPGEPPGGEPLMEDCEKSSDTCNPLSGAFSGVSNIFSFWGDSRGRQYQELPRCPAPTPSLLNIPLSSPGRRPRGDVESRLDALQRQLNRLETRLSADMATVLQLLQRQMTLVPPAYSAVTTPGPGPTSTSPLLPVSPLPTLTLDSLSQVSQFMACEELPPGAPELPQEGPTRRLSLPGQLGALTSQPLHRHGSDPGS

[3] = test system: O. gutturosa adult male worms; assay: O. gutturosa adult worm ex vivo assay, MTT/formazan viability; assay type: cell-based, Onchocerca gutturosa; conditions: supplement, SD in brackets in the PDF table, read-out: O. gutturosa EC50 (uM) MTT viability inhibition
Description: (§2) Activity against O. gutturosa adult male worms was determined using reported procedures.[7] The EC50 values were calculated using Microsoft Office Excel (2010) data analysis software. The tested compound is considered active when a motility reduction of ≥50% is observed by comparison to the untreated controls. O. gutturosa adult male worms were obtained postmortem from freshly slaughtered cattle. The worms were dissected from the nuchal ligament connective tissues of naturally infected cattle in Gambia, West Africa; the material was purchased from the International Trypanotolerance Centre, Banjul, from local butchers for use in this study. The adult worms were transferred individually to each well of a sterile 24-well (2 mL) plate (Thermo Fisher Scientific, UK) and maintained for at least 24 h in culture before use. The medium used was a minimum essential medium (MEM) with Earl’s salts and L-glutamine (Life Technologies Ltd., UK) supplemented with 10% heat inactivated newborn calf serum (Life Technologies Ltd., UK), 200 units/mL penicillin, 200 μg/mL streptomycin, and 0.5 μg/mL amphotericin B (Life Technologies Ltd., UK). Only normally active worms were used for the test, and all assays were conducted at 37 °C and 5% CO2. The positive control drug used was Immiticide (melarsomine dihydrochloride, Merial, USA). Known amounts of compounds were solubilized in 1 mL of DMSO. All stock solutions were allowed to stand at room temperature prior to use. The test items (four worms/drug concentration) were compared to untreated controls (six worms) and the positive control (two worms/drug concentration). Drug efficacy was assessed by the measurement of mean worm motility scores on a scale of 0 (immotile) to 10 (maximum) every 24 h, terminating at 120 h, using an Olympus inverted microscope. The results are reported as a percentage of the maximum score obtainable (100%) by calculating the motility index scores. The test drug is considered active when a motility reduction of ≥50% is observed by comparison to the untreated controls. […] In addition, biochemical evaluation of worm viability was assessed using MTT/formazan colorimetry. The MTT assay was carried out after the last motility reading (120 h). Single intact worms were placed in each well of a 48-well plate (Thermo Fisher Scientific, UK) containing 0.5 mL of 0.5 mg/mL MTT (Sigma, UK) in PBS solution and then incubated for 30 min at 37 °C. The worms were removed, blotted carefully, and individually transferred to separate wells of a 96-well microtiter plate, each containing 200 μL of DMSO to solubilize the formazan. After 1 h, the plate was gently agitated to disperse the color evenly and the absorbance value (optical density, OD) of the resulting formazan solution was determined at 490 nm using an absorbance microplate reader (Biotek ELx800, Thermo Fisher Scientific, UK). The results are expressed as the mean OD per drug concentration. Inhibition of formazan formation is correlated with worm damage or death.

[4] = LogD measurement (octanol-water); assay type: physicochemical
Description: LogD Measurement: Measurement of octanol-water distribution coefficient of samples using a […]
stock solutions for plating. Aqueous Phase: 100mM Buffer, pH=7.4 (0.1M Potassium phosphate buffer, diluted from Sigma 1M P3619-1GA to 0.1 M with MilliQ water), pH=2.2 (0.1M- NaCl pH adjusted with 0.1N HCL), pH=6.8 (0.1M - KH2PO4/K2HPO4), pH=5 (4 .04g of NaOH (Pellets), 8.65g of Glacial Acetic Acid, 11.874g of NaCl. In in 1 liter water. Adjusted to pH to 5 with either 1N NaOH or 1N HCl); Organic Phase: 1-Octanol (O021). Sample Concentration:
1000uM, […] 10 mM DMSO stock solution diluted in […] of organic Phase and […] of aqueous Phase. DMSO content: 10%. The controls were plated from the standard 10 mM DMSO stock and run on the standard concentration ([…]) range of the assay. Incubation time:
Sonication for 30 minutes followed by 24 hours shaking at 750 rpm in 96 deep well plate (VWR

[5] = Liver S9 metabolic stability assay, rat; assay type: in vitro ADME; conditions: 3 μM, 60 min
Description: as §1

[6] = Kinetic solubility measurement; assay type: physicochemical
Description: Kinetic Solubility Measurement: The standard kinetic solubility assay runs on […] concentration range using 10 mM DMSO stock solutions for plating. Single point calibration assay runs in duplicates. Concentration of standards: […] DMSO solutions prepared by diluting 10 mM stock, solution with DMSO. Concentration of samples: 200 µM, 4 µl 10 mM DMSO stock solution diluted with the appropriate buffer to […]. DMSO content:
2%. Buffers: pH=7.4 (0.1M Potassium phosphate buffer, diluted from Sigma 1M P3619-1GA to 0.1 M with MilliQ water), pH=2.2 (0.1M- NaCl pH adjusted with 0.1N HCL), pH=6.8 (0.1M - KH2PO4/K2HPO4), pH=5 (4 .04g of NaOH (Pellets), 8.65g of Glacial Acetic Acid, 11.874g of NaCl. In in 1 liter water. Adjusted to pH to 5 with either 1N NaOH or 1N HCl). The controls were plated from the standard 10 mM DMSO stock and run on the standard concentration (200µM) range of the assay. Incubation time: 24 hours shaking at […] in Millipore Multiscreen HTS filter plate for Aqueous Solubility Assay (MSSLBPC50), on room temperature.
After incubation time filtration with positive pressure manifold was performed. […]

[7] = test system: O. gutturosa adult male worms; assay: O. gutturosa adult worm ex vivo assay, motility; assay type: cell-based, Onchocerca gutturosa; conditions: Onchocerca gutturosa
Description: as §2
Data S1. Onchocerca gutturosa adult male worms EC 50 Curves
Plotted using Graph Pad Prism 7.03, least square original fit, sigmoidal, 4PL
The measurement of mean worm motility every 24 h, terminating at 120 h, serial 1 in 4 drug dilutions to find
activity endpoint and produce EC50 values (geomean, n=2) for motility reduction. (4 worms per drug […]

P-gp (MDR1) = target: T2, P-gp (MDR1) (Homo sapiens, UniProt P08183); assay: MDCK/MDR1 permeability and efflux; assay type: in vitro ADME; conditions: dog
T2 construct: expressed in transfected cells; host or cells: MDCK (Madin Darby canine kidney) cells
T2 sequence (P08183 whole entry): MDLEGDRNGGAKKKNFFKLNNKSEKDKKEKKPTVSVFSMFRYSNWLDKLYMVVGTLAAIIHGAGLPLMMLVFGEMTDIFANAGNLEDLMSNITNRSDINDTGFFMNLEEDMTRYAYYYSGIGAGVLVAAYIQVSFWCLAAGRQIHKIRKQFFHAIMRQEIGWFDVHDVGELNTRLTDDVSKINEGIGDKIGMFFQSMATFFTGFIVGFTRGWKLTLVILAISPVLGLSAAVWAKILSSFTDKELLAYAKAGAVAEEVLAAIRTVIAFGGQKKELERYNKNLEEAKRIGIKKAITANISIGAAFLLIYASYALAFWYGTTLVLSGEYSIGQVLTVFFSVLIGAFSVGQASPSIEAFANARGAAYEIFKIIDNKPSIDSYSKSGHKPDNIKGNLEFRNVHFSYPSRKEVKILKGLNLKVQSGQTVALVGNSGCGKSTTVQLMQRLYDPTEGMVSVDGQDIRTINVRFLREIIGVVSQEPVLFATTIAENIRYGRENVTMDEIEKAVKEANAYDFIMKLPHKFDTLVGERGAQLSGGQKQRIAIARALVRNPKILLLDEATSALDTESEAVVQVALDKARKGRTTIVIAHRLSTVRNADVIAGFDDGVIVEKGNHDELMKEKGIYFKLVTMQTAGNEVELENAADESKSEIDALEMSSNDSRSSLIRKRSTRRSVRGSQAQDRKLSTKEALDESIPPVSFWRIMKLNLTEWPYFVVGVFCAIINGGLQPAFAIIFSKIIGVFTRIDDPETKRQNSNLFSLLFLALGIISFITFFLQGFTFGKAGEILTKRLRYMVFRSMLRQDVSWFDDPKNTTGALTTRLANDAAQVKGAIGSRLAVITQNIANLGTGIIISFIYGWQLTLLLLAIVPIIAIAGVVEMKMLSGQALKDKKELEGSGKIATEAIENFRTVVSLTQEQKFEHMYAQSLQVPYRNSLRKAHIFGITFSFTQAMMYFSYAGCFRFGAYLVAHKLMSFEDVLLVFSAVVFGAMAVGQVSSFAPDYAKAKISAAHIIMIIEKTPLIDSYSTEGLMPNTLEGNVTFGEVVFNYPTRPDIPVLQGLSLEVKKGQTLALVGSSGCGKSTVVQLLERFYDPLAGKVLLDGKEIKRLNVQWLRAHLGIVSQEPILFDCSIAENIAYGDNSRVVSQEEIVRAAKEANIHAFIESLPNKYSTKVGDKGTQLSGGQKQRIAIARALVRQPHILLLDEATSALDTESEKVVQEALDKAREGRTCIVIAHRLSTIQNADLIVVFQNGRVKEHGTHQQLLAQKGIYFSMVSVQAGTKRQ
From the text: Our approach was to target compounds with efflux ratio (ER) >2.5 in the MDCK cell line transfected with MDR1 (multidrug resistance-1 transfected Madin Darby canine kidney cell line). […] Our goal was to impart structural elements designed to impart Pgp recognition.

THLE-2 cells = assay: THLE-2 cytotoxicity assay (ATP); conditions: Homo sapiens, THLE-2, read-out: THLE IC50
Description: In vitro cytotoxicity of select compounds was tested in a “normal” proliferating transformed human liver epithelial (THLE-2) cell line.[35] Compounds were incubated in THLE-2 cells for 24 and 72 h, and adenosine triphosphate (ATP) levels were used as an indicator of cell viability.
THLE-2 Cytotoxicity Assay: THLE-2 cells (ATCC, catalog #CRL-2706) were plated in LHC-8 Media (Invitrogen, catalog #12679015) supplemented with fetal bovine serum (GE, catalog #SH30088.03), 70 ng/mL phosphoethanolamine (Sigma, catalog #P0503), 5 ng/mL EGF (Sigma, catalog #E9644), 1X penicillin/streptomycin (Gibco, catalog #15140148), and 1X glutamine (Invitrogen, catalog #25030024) in 384-well clear-bottom, black walled plates at a density of 3750 cells/well (15μL/well). After plating, cells were incubated overnight at 37°C in an incubator with 5% CO2 and 90% humidity. Compounds were first serially diluted in dimethyl sulfoxide then diluted in LHC-8 media growth media to 2X concentration. Cells were dosed with 15μL of each dose for final concentrations between 0.01 – 300 μM. Cells were incubated with compounds for 24 or 72 hours. Cytotoxicity was determined with Cell Titer Glo Luminescent ATP Assay (Promega, catalog #G7573) according to the manufacturer’s instructions. Tamoxifen (Sigma, catalog #BC9353476) was used as a positive control. levels at each dose were normalized to that of cells dosed with dimethyl sulfoxide vehicle alone and IC50 values were calculated from non-linear regression fits of dose-response curves plotted

[8] = supplement, read-out: measured logD
[9] = read-out: O. gutturosa EC50 μM (SD), ex vivo adult worm motility reduction, SD in brackets
[10] = read-out: O. gutturosa EC50 (uM) motility inhibition, supplement, SD in brackets in the PDF table

Compound	Human S9 metabolic stability [1] [% remaining]	IC50 ([2]; supplement) [nM]	EC50 ([3]; Onchocerca gutturosa) [µM]	logD at 24 h [4, 8]	Rat S9 metabolic stability [5] [% remaining]	solubility kinetic at 24 h ([6]; 10 mM DMSO stock solutions) [µM]	EC50 [7, 9] [µM]	EC50 [7, 10] [µM]	EC50 ([7]; read-out: O. gutturosa EC50, adult worm motility, bound stated) [µM]	logD at 24 h ([4]; pH 7.4, read-out: logD)	Papp A→B (P-gp (MDR1)) [×10⁻⁶ cm/s]	EC50 [3] [µM]	IC50 (THLE-2 cells) [nM]	solubility kinetic at 24 h ([6]; supplement) [µM]	IC50 [2] [nM]
Cc1cccnc1Nc1nc(-c2ccc(OC3CCOCC3)cn2)ns1 [Compound 3]	84	19000	0.24	2.2	82	7.3 (≈ 2.7 µg/mL)	0.03	0.027	< 0.1						
CC(=O)N(C)c1cc(C(F)(F)F)cnc1Nc1nc(-c2cc(OC(C)C)ccn2)ns1 [Compound 55, N-(2-((3-(4-Isopropoxypyridin-2-yl)-1,2,4-thiadiazol-5-yl)amino)-5-(trifluoromethyl)pyridin-3-yl)-N-methylacetamide]			0.04	3			0.01	0.013		3	1.7				
Cc1cccnc1Nc1nc(-c2ccc(C(=O)N(C)C)cn2)ns1 [Compound 18, N,N-Dimethyl-6-(5-((3-methylpyridin-2-yl)amino)-1,2,4-thiadiazol-3-yl)nicotinamide]	97	> 30000	0.09	1.7	94	73.2 (≈ 24.9 µg/mL)	0.06	0.062		1.7		0.087			
Cc1cccnc1Nc1nc(-c2cc(C#N)c(OC(C)C)cn2)ns1 [Compound 15]	100	> 30000	0.71	2.3	84	0.3 (≈ 0.106 µg/mL)	1.37			2.3					
COc1cccnc1Nc1nc(-c2ccc(OC(C)C)cn2)ns1 [Compound 28, 3-(5-Isopropoxypyridin-2-yl)-N-(3-methoxypyridin-2-yl)-1,2,4-thiadiazol-5-amine]	100		0.62	1.7	100	7.25 (≈ 2.49 µg/mL)	0.08	0.076		1.7			7700		
CC(=O)Nc1cccnc1Nc1nc(-c2ccc(OC(C)C)cn2)ns1 [Compound 46]		> 30000	1.37	2.4		29.4 (≈ 10.9 µg/mL)	1.27			2.4				29.5 (≈ 10.9 µg/mL)	
CC(=O)N(C)c1cnc(Nc2nc(-c3ccc(OC(C)C)cn3)ns2)c(C)c1 [Compound 51]			0.46	2.2		15 (≈ 5.98 µg/mL)	0.49	0.488		2.2	30.3				
CC(C)Oc1cccnc1-c1nsc(Nc2ncc(C(F)(F)F)cc2C(=O)N(C)C)n1 [Compound 58, 2-[[3-(3-Isopropoxy-2-pyridyl)-1,2,4-thiadiazol-5-yl]amino]-N,N-dimethyl-5-(trifluoromethyl)pyridine-3-carboxamide]			1.5	2.15		130 (≈ 58.9 µg/mL)	0.62	0.621		2.15	11.2				
Cc1cccnc1Nc1nc(-c2ccc(OC3CCN(C4CC4)CC3(F)F)cn2)ns1 (centres unmarked) [Compound 20, 3-(5-((1-Cyclopropyl-3,3-difluoropiperidin-4-yl)oxy)pyridin-2-yl)-N-(3-methylpyridin-2-yl)-1,2,4-thiadiazol-5-amine]	52		0.3	2.8	32		0.24	0.236		2.8					> 30000
